Data: ChEMBL document CHEMBL1140426, “First structure-activity relationship study on dopamine D3 receptor agents with N-[4-(4-arylpiperazin-1-yl)butyl]arylcarboxamide structure” (J Med Chem, 2005)

Tests used:
D(3) dopamine receptor [1] = molecular target: T1, D(3) dopamine receptor (Homo sapiens, UniProt P35462)
Description: Intrinsic activity against dopamine receptor D3 by Eu-GTP binding assay

D(3) dopamine receptor [2] = molecular target: T1, D(3) dopamine receptor; assay: biochemical
Description: Displacement of [3H]spiroperidol from cloned human dopamine receptor D3 in CHO cell membrane

T1 sequence (P35462 whole entry): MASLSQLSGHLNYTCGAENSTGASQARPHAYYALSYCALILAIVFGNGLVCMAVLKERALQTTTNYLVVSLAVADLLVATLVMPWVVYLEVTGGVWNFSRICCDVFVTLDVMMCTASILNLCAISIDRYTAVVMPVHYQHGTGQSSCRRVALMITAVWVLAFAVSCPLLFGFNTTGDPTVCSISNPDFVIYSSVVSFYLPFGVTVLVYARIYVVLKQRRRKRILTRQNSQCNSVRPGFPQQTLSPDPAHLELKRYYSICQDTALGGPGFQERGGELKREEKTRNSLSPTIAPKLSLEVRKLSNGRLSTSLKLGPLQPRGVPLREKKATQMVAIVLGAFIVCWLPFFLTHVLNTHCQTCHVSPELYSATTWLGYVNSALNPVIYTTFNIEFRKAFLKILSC

Row | SMILES | EC50 (D(3) dopamine receptor [1]) [nM] | Ki (D(3) dopamine receptor [2]) [nM]
1 | O=C(NCCCCN1CCN(c2cccc(Cl)c2Cl)CC1)c1ccccc1 | 209 | 11.9
2 | COc1ccccc1N1CCN(CCCCNC(=O)[C@H]2CC[C@@H](c3ccccc3)CC2)CC1 | 1820 | 20.6
3 | COc1ccccc1N1CCN(CCCCNC(=O)c2ccc3c(c2)Cc2ccccc2-3)CC1 | 49 | 0.52
4 | O=C(NCCCCN1CCN(c2cccc(Cl)c2Cl)CC1)[C@H]1CC[C@@H](c2ccccc2)CC1 | 631 | 10.6
5 | COc1ccccc1N1CCN(CCCCNC(=O)[C@H]2CC[C@H](c3ccccc3)CC2)CC1 | – | 3.4
6 | O=C(NCCCCN1CCN(c2cccc(Cl)c2Cl)CC1)c1ccc2ccccc2c1 | – | 7.9
7 | O=C(NCCCCN1CCN(c2cccc(Cl)c2Cl)CC1)[C@H]1CC[C@H](c2ccccc2)CC1 | – | 22.8
8 | COc1ccccc1N1CCN(CCCCNC(=O)c2ccc(-c3ccccc3)cc2)CC1 | – | 0.3
9 | O=C(NCCCCN1CCN(c2cccc(Cl)c2Cl)CC1)c1cccc2ccccc12 | 60.3 | 6.9
10 | O=C(NCCCCN1CCN(c2cccc(Cl)c2Cl)CC1)c1ccc(-c2ccccc2)cc1 | – | 1.98
11 | COc1ccccc1N1CCN(CCCCNC(=O)c2cccc3ccccc23)CC1 | – | 32.6
